According to patent US7842825B2, “Biaryloxymethylarenecarboxylic acids as glycogen synthase activator” (Hoffmann-La Roche Inc., priority 2003, dated 2010):

Test system: glycogen synthase
Experiment: Glycogen Synthase (GS) Assay, in vitro activation of glycogen synthase
Type: biochemical
Conditions: compound concentration needed to stimulate 200% of the enzyme activity; coupled pyruvate kinase/lactate dehydrogenase assay, absorbance at 340 nm, 37° C
Description: Twelve μl per well of substrate solution containing glycogen (4.32 mg/ml), 21.6 mM UDP-glucose, 21.6 mM phospho(enol)pyruvate and 2.7 mM NADH in 30 mM glycylglycine, pH 7.3 buffer is added into a polystyrene 384-well assay plate (BD Biosciences). Compound solution (8 μl/well) at various concentrations (0-57 μM) in 30 mM glycylglycine, pH 7.3, 40 mM KCl, 20 mM MgCl2 plus 9.2% DMSO are added to the assay plate (columns 5-24). Enzyme solution (12 μl/well) containing glycogen synthase (16.88 μg/ml), pyruvate kinase (0.27 mg/ml), lactate dehydrogenase (0.27 mg/ml) in 50 mM Tris-HCl, pH 8.0, 27 mM DTT and bovine serum albumin (BSA, 0.2 mg/ml) is added to the assay plate (columns 3-24). As a blank control, enzyme solution without glycogen synthase is added into the top half wells of columns 1-2. To the bottom half wells of columns 1-2 are added a known activator, glucose 6-phosphate (18.9 mM) in addition to the enzyme solution. The reaction mixture is incubated at 37° C. The assay plate is then read for absorbance at 340 nm on a Tecan Ultra reader every 3 minutes up to a total of 30 minutes.
(§1) The enzyme activity (with or without compound) is calculated by the reaction rate and represented by the optical density change (ΔOD) per minute. Percent stimulation of glycogen synthase activity by a compound at various concentrations is calculated by the following formula: % stimulation=100*Rs/Rt,
where Rs is the reaction rate of the enzyme in the presence of compound and Rt is the reaction rate of the enzyme in the absence of compound.
SC2.0 is defined as the compound concentration that is needed to stimulate 200% of the enzyme activity.
Glycogen Synthase (GS) Assay
The following tests were carried out in order to determine the activity of the compounds of formula (I).
Twelve μl per well of substrate solution containing glycogen (4.32 mg/ml), 21.6 mM UDP-glucose, 21.6 mM phospho(enol)pyruvate and 2.7 mM NADH in 30 mM glycylglycine, pH 7.3 buffer was added into a polystyrene 384-well assay plate (BD Biosciences). Compound solution (8 μl/well) at various concentrations (0-57 μM) in 30 mM glycylglycine, pH 7.3, 40 mM KCl, 20 mM MgCl2 plus 9.2% DMSO were added to the assay plate (columns 5-24). Enzyme solution (12 μl/well) containing glycogen synthase (16.88 μg/ml), pyruvate kinase (0.27 mg/ml), lactate dehydrogenase (0.27 mg/ml) in 50 mM Tris-HCl, pH 8.0, 27 mM DTT and bovine serum albumin (BSA, 0.2 mg/ml) was added to the assay plate (columns 3-24). As a blank control, enzyme solution without glycogen synthase was added into the top half wells of columns 1-2. To the bottom half wells of columns 1-2 were added a known activator, glucose 6-phosphate (18.9 mM) in addition to the enzyme solution. The reaction mixture was incubated at 37° C. The assay plate was then read for absorbance at 340 nm on a Tecan Ultra reader every 3 minutes up to a total of 30 minutes.
as §1, with “was” for “is”, “stimulation=100*Rs/Rt, […]” for “stimulation=100*Rs/Rt,”

| Compound | SC2.0 [µM] |
| --- | --- |
| O=C(O)[C@H]1CCCN1C(=O)c1ccc(COc2ccc(-c3ccccc3)cc2)o1 [1-[5-(Biphenyl-4-yloxymethyl)-furan-2-carbonyl]-L-pyrrolidine-2-carboxylic acid] | 1.4 |
| O=C(O)c1ccc(COc2ccc(-c3ccccc3)cc2)s1 [5-(Biphenyl-4-yloxymethyl)-thiophene-2-carboxylic acid] | 12.7 |
| O=C(O)c1cccc(COc2ccc(-c3ccc(Br)cc3)cc2)c1 [Example 4, 3-(4′-Bromo-biphenyl-4-yloxymethyl)-benzoic acid] | 3.8 |
| COc1ccc(-c2ccc(OCc3cccc(C(=O)O)c3)cc2)cc1 [Example 7, 3-(4′-Methoxy-biphenyl-4-yloxymethyl)-benzoic acid] | 9.6 |
| O=C(O)c1ccc(COc2cccc(-c3ccccc3)c2)o1 [Example 9, 5-(Biphenyl-3-yloxymethyl)-furan-2-carboxylic acid] | 14.9 |
| O=C(O)c1ccc(COc2ccc(-c3ccc(Cl)cc3)cc2)o1 [Example 12, 5-(4′-Chloro-biphenyl-4-yloxymethyl)-furan-2-carboxylic acid] | 0.8 |
| O=C(O)c1ccccc1COc1ccc(-c2ccccc2)cc1Cl [Example 15, 2-(3-Chloro-biphenyl-4-yloxymethyl)-benzoic acid] | 10.3 |
| O=C(O)c1csc(COc2ccc(-c3ccccc3)cc2Cl)n1 [Example 22, 2-(3-Chloro-biphenyl-4-yloxymethyl)-thiazole-4-carboxylic acid] | 14.9 |
| O=C(O)c1csc(COc2ccc(-c3ccc(Cl)cc3)cc2)n1 [Example 26, 2-(4′-Chloro-biphenyl-4-yloxymethyl)-thiazole-4-carboxylic acid] | 3.1 |
| O=C(NC1(C(=O)O)CCCC1)c1ccc(COc2ccc(-c3ccccc3)cc2)o1 [Example 34, 1-{[5-(Biphenyl-4-yloxymethyl)-furan-2-carbonyl]-amino}-cyclopentane carboxylic acid] | 16.3 |
